Reference: ChEMBL document CHEMBL1130196, “Selective, orally active 5-HT1D receptor agonists as potential antimigraine agents” (J Med Chem, 1997)

Experiments:
[1] = target: T1, 5-hydroxytryptamine receptor 1B (Homo sapiens, UniProt P28222); experiment: Displacement of [3H]5-HT from human 5-hydroxytryptamine 1B receptor expressed in CHO cells; format: cell-based
[2] = target: T2, 5-hydroxytryptamine receptor 1D (Homo sapiens, UniProt P28221); experiment: Maximum stimulation of [35S]GTP-gamma-S, binding to 5-hydroxytryptamine 1D receptor relative to 5-HT; format: functional
T2 sequence (P28221 whole entry): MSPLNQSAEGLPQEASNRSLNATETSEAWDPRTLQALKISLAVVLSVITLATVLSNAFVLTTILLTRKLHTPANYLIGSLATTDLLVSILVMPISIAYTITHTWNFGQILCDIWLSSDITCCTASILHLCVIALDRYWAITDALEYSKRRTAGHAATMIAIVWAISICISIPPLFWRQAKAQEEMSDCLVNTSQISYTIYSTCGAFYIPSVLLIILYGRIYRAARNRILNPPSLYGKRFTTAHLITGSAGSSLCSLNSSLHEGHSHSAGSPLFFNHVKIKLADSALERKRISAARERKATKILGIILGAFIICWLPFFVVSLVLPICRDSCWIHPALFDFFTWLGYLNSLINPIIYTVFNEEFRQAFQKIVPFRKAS

[3] = target: T2, 5-hydroxytryptamine receptor 1D; experiment: Displacement of [3H]5-HT from human 5-hydroxytryptamine 1D receptor expressed in CHO cells; format: cell-based
[4] = target: T2, 5-hydroxytryptamine receptor 1D; experiment: Stimulation of [35S]GTP-gamma-S, binding in CHO cells expressing 5-hydroxytryptamine 1D receptor; format: functional, cell-based
[5] = target: T3, 5-hydroxytryptamine receptor 1A (Mus musculus, UniProt Q64264); experiment: Compound was evaluated for the affinity at 5-hydroxytryptamine 1A receptor
T3 sequence (Q64264 whole entry): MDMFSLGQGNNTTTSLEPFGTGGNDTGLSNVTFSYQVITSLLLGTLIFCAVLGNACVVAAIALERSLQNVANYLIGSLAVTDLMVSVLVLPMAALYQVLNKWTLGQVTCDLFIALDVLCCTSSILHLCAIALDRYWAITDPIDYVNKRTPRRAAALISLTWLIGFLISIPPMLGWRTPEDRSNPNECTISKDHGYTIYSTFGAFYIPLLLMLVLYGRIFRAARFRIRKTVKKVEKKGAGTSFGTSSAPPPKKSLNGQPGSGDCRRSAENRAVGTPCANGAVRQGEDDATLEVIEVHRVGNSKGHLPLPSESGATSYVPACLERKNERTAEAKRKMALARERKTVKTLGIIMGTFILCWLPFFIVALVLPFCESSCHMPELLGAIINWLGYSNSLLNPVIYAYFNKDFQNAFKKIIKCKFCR

[6] = target: T1, 5-hydroxytryptamine receptor 1B; experiment: Compound was evaluated for the affinity at 5-hydroxytryptamine 1B receptor
[7] = target: T2, 5-hydroxytryptamine receptor 1D; experiment: Compound was evaluated for the stimulation of [35S]GTP-gamma-S, binding in CHO cells expressing the 5-hydroxytryptamine 1D receptor.; format: functional, cell-based
[8] = target: 5-hydroxytryptamine receptor 1E (Homo sapiens, UniProt P28566); experiment: Compound was evaluated for the affinity at 5-hydroxytryptamine 1E receptor
Chain of 5-hydroxytryptamine receptor 1E (P28566 whole entry): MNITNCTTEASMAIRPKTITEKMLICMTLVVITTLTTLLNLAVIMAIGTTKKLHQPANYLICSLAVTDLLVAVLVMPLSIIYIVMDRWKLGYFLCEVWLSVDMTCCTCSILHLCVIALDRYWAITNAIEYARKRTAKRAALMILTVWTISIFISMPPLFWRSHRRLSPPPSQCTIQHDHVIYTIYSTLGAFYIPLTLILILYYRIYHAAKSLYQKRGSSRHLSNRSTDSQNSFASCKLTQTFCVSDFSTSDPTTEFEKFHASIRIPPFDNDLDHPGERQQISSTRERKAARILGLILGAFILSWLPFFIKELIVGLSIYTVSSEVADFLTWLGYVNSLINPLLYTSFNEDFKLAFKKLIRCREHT

[9] = target: T4, 5-hydroxytryptamine receptor 1F (Homo sapiens, UniProt P30939); experiment: Compound was evaluated for the affinity at 5-hydroxytryptamine 1F receptor
T4 sequence (P30939 whole entry): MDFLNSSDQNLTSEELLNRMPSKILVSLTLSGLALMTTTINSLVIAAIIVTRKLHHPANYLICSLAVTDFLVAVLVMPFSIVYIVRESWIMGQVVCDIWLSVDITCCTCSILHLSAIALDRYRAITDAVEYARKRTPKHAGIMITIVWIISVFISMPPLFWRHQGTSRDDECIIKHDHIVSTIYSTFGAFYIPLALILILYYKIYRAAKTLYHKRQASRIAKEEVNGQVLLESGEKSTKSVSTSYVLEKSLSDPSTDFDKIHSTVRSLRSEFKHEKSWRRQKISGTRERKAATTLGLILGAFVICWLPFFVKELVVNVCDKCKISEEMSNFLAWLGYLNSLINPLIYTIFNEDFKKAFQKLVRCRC

[10] = target: T2, 5-hydroxytryptamine receptor 1D; experiment: Compound was evaluated for the affinity at 5-hydroxytryptamine 1D receptor
[11] = target: 5-hydroxytryptamine receptor 2A (Homo sapiens, UniProt P28223); experiment: Compound was evaluated for the affinity at 5-hydroxytryptamine 2A receptor
Chain of 5-hydroxytryptamine receptor 2A (P28223 whole entry): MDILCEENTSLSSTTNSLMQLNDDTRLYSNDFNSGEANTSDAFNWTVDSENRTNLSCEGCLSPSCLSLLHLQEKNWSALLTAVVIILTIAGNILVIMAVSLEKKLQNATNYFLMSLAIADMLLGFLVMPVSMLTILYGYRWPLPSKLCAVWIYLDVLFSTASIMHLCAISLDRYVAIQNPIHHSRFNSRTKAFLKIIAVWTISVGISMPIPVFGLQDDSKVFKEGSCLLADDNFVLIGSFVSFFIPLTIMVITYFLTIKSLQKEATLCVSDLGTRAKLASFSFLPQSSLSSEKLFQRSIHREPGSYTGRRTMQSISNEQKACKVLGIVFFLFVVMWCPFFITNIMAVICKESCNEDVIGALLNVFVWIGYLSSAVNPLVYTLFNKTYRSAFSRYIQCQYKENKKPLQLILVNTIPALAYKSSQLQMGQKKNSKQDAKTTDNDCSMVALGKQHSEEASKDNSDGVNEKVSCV

[12] = target: T5, 5-hydroxytryptamine receptor 3A (Homo sapiens, UniProt P46098); experiment: Compound was evaluated for the affinity at 5-hydroxytryptamine 3 receptor
T5 sequence (P46098 whole entry): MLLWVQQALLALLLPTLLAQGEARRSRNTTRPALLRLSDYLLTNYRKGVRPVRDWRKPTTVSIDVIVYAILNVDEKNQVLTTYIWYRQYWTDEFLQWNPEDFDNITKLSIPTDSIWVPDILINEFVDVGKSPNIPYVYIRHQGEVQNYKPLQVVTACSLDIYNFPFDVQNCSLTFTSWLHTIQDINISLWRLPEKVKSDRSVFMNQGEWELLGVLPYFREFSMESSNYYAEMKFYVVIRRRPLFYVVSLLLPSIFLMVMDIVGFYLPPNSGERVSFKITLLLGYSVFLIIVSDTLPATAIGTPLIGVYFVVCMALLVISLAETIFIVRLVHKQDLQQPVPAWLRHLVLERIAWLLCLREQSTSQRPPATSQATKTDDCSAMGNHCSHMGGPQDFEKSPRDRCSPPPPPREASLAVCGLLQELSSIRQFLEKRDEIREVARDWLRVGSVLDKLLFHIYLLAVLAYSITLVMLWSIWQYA

[13] = target: T6, 5-hydroxytryptamine receptor 2C (Homo sapiens, UniProt P28335); experiment: Compound was evaluated for the affinity at 5-hydroxytryptamine 2C receptor
T6 sequence (P28335 whole entry): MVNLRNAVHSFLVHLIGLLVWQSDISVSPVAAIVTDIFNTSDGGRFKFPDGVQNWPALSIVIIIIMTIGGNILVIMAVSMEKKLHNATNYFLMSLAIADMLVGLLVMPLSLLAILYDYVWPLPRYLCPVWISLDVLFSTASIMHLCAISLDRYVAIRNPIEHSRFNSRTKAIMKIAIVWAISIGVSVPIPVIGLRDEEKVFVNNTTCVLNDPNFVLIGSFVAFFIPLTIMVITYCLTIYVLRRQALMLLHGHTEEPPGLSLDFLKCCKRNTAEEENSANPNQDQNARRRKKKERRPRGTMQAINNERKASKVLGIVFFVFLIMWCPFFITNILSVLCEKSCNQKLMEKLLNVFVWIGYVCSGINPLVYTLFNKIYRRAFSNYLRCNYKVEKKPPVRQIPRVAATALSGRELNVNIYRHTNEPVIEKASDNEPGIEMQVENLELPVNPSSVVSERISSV

T1 sequence (P28222 whole entry): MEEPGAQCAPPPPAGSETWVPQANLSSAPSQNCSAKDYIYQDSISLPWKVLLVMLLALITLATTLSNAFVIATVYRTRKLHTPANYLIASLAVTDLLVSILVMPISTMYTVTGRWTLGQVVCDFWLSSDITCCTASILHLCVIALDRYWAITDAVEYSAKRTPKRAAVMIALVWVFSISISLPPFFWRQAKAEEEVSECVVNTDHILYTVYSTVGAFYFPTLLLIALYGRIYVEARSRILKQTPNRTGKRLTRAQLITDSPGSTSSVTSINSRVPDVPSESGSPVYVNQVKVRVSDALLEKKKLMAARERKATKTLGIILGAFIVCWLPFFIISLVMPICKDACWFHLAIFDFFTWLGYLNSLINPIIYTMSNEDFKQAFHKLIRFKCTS

| IC50 [1] [nM] | Efficacy [2] [%] | IC50 [3] [nM] | EC50 [4] [nM] | SMILES | other results |
| --- | --- | --- | --- | --- | --- |
| 47 | 86 | 0.7 | 0.6 | Fc1cc(F)cc(CCN2CCN(CCCc3c[nH]c4ccc(-n5cnnc5)cc34)CC2)c1 | – |
| 98 | 86 | 1 | 1.9 | Fc1ccc(CCN2CCN(CCCc3c[nH]c4ccc(-n5cnnc5)cc34)CC2)cc1F | – |
| 100 | 80 | 0.6 | 1.5 | Fc1ccccc1CCN1CCN(CCCc2c[nH]c3ccc(-n4cnnc4)cc23)CC1 | – |
| 251 | 85 | 1.3 | 1.9 | CC(=O)Nc1ccc(CCN2CCN(CCCc3c[nH]c4ccc(-n5cnnc5)cc34)CC2)cc1 | – |
| 170 | 96 | 1.8 | 1.6 | CC(=O)Nc1cccc(CCN2CCN(CCCc3c[nH]c4ccc(-n5cnnc5)cc34)CC2)c1 | – |
| 8.1 | 56 | 0.2 | 0.1 | c1ccc(CN2CCN(CCCc3c[nH]c4ccc(-n5cnnc5)cc34)CC2)cc1 | – |
| 120 | 81 | 0.8 | 1.5 | Fc1ccc(CCN2CCN(CCCc3c[nH]c4ccc(-n5cnnc5)cc34)CC2)cc1 | – |
| 170 | 65 | 1.4 | 0.9 | c1ccc(CCN2CCN(CCCc3c[nH]c4ccc(-n5cnnc5)cc34)CC2)cc1 | – |
| 75 | – | 0.6 | – | Fc1cccc(CCN2CCN(CCCc3c[nH]c4ccc(-n5cnnc5)cc34)CC2)c1 | IC50 [5]: 55 nM; IC50 [6]: 75 nM; EC50 [7]: 1.2 nM; IC50 [8]: > 10000 nM; IC50 [9]: 3.8 µM; IC50 [10]: 0.6 nM; IC50 [11]: 370 nM; IC50 [12]: > 10 µM; IC50 [13]: 9 µM |
| 430 | 104 | 35 | 53 | CN1CCN(CCCc2c[nH]c3ccc(-n4cnnc4)cc23)CC1 | – |
| – | – | – | – | CNS(=O)(=O)Cc1ccc2[nH]cc(CCN(C)C)c2c1 | IC50 [5]: 450 nM; IC50 [8]: 2400 nM |

| SMILES | IC50 [1] [nM] | Efficacy [2] [%] | IC50 [3] [nM] | EC50 [4] [nM] | other results |
| --- | --- | --- | --- | --- | --- |
| CN1CCN(CCc2c[nH]c3ccc(-n4cnnc4)cc23)CC1 | 310 | 63 | 140 | 80 | – |
| c1cc2[nH]cc(CCN3CCCC3)c2cc1-n1cnnc1 | – | 120 | – | – | – |
